Laboratory results reported in patent US9353115B2, “Immune system modulators” (JANUS BIOTHERAPEUTICS, INC., priority 2011, dated 2016).

What was measured:
[1] = target: human TLR9 (hTLR9) (Homo sapiens (Human), UniProt Q9NR96); experiment: TLR9 antagonist assay in HEK-Blue-hTLR9 cells (SEAP reporter, ODN 2006 agonist); assay type: cell-based; details: inhibition of hTLR9 dependent SEAP production, hTLR9 agonist such as ODN 2006, 1 μM, read-out: hTLR9 antagonism IC50
Text: HEK-Blue™-hTLR9 cells were obtained from InvivoGen Inc. and used to determine test compound antagonism of human TLR9 (hTLR9) driven responses. HEK-Blue™-hTLR9 cells are designed for studying the stimulation of human TLR9 by monitoring the activation of NF-kB. As described by the manufacturer, “HEK-Blue™-hTLR9 cells were obtained by co-transfection of the hTLR9 gene and an optimized secreted embryonic alkaline phosphatase (SEAP) reporter gene into HEK293 cells. The SEAP reporter gene is placed under the control of the IFN-b minimal promoter fused to five NF-kB and AP-1 binding sites. Stimulation with a TLR9 ligand activates NF-kB and AP-1 which induces the production of SEAP. Levels of SEAP can be easily determined with QUANTI-Blue™ a detection medium that turns purple/blue in the presence of alkaline phosphatase”. […]
Invivogen's QUANTI-Blue™ was prepared following the manufacturer's instructions. […] SEAP levels were determined using a spectrophotometer at 620 nm.
The concentration dependent inhibition of hTLR9 dependent SEAP production was expressed as the concentration of compound which produced half the maximal level of SEAP induced by the hTLR agonist alone. Percent activity was calculated for each observation using the formula: % activity=((observed O.D.−background O.D.)/(agonist only O.D.−background O.D.))*100. […]

[2] = target: TLR9 (Mus musculus (Mouse), UniProt Q9EQU3); experiment: In vivo TLR knockdown: serum IL-12 after CpG ODN 1668 TLR9 agonist injection in C57Bl/6J mice; details: male C57Bl/6J mice; single intraperitoneal dose; CpG ODN 1668 i.p. 1 hr later; serum IL-12 ELISA 3 hours post agonist
Experimental: The Effects of Test Articles on Toll-Like Receptor (TLR) Knockdown Following a Single Intraperitoneal Dose to Male C57Bl/6 Mice.
Toll-Like Receptor (TLR) knockdown effect of test articles was evaluated in a C57Bl/6J mouse. Primary end points included a terminal blood collection for analysis of cytokine production in response to CpG-DNA TLR9 agonist injection. Male C57Bl/6J mice, at ˜8 weeks of age from Jackson Laboratories were used. Test groups were 3 mice per treatment group and the groups were administered test article in a series of descending doses within the range of 400 μg to 10 μg. Test article treatment was dosed at T=0 hr by intraperitoneal injection. Agonist (CpG ODN 1668) treatment was dosed one hour later, T=1 hr by intraperitoneal injection. Necropsy was performed 3 hours post agonist treatment, T=4 hr. Blood samples were collected into serum separator tubes, allowed to clot at room temperature for at least 20 minutes, centrifuged at ambient temperature at 3000 g for 10 minutes, and the serum was extracted. ELISA was performed to determine murine IL-12 levels following manufacture's protocol (BioLegend Inc.). Serum IL-12 levels were calculated and plotted versus administered dose of antagonist and inhibitory dose at 50% (ID50) was determined.

Sequence of human TLR9 (hTLR9) (Q9NR96 26-1032): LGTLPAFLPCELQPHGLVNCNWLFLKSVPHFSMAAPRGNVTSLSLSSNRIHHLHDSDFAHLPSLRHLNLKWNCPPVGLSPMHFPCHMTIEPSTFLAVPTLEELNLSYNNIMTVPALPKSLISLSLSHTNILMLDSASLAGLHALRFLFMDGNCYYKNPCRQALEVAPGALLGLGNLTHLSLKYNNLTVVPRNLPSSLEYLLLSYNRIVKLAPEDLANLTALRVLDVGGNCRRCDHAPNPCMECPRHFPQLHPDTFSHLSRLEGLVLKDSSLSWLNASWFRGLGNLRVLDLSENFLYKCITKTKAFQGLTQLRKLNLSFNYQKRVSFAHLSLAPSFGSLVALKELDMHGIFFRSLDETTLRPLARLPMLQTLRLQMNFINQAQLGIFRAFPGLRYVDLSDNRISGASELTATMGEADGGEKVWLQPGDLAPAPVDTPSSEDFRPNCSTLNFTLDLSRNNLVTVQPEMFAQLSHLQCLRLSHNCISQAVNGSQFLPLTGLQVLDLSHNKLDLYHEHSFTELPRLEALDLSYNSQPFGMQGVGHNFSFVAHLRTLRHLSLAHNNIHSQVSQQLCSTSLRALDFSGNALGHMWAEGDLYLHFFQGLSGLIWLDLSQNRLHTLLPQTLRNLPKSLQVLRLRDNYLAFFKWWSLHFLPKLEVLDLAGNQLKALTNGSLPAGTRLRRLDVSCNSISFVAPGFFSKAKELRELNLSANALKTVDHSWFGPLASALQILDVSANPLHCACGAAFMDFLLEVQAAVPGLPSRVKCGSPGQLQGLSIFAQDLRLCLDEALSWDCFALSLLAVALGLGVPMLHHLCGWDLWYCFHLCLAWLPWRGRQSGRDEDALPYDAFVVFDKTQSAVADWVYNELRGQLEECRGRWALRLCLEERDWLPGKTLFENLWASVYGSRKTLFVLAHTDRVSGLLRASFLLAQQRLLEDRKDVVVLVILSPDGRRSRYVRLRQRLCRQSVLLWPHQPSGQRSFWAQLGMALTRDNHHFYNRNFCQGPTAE
Sequence of TLR9 (Q9EQU3 26-1032): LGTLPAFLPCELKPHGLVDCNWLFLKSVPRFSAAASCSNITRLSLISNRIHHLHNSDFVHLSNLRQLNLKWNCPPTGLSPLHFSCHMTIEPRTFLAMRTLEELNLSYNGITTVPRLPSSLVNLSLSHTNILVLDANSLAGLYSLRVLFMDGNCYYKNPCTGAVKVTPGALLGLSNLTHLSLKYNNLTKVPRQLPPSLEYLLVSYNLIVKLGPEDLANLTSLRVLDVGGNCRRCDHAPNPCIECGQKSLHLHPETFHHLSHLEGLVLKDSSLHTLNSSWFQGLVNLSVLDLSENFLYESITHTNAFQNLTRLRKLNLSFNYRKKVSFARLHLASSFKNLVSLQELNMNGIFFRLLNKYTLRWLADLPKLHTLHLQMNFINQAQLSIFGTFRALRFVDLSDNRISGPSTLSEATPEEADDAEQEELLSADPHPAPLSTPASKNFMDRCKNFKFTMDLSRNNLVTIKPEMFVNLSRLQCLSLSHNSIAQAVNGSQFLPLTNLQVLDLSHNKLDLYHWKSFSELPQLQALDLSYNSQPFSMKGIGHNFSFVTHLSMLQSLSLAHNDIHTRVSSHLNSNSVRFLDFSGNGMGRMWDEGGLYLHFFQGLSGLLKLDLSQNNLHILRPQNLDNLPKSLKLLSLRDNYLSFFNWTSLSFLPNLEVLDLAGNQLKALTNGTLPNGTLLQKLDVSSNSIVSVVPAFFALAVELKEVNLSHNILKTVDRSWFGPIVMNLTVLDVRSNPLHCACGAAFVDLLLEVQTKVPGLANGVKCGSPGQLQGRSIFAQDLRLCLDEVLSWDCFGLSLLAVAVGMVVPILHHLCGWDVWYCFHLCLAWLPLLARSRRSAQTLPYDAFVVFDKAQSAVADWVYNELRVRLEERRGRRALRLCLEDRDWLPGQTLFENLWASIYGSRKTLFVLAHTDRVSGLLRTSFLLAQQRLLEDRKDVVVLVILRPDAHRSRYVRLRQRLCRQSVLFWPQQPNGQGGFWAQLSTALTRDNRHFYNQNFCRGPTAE

Compound: CN1CCN(CCNc2nc(-c3ccccc3)nc3c2nc(O)n3CCN2CCOCC2)CC1 [Example 57]
- IC50 [1]: 0.271 µM
- In vivo TLR antagonism ID50 (inhibitory dose at 50% of serum IL-12) [2]: 348 µg

Compound: CN1CCN(CCn2c(O)nc3c(NCCN4CCOCC4)nc(-c4ccccc4)nc32)CC1 [Example 63]
- IC50 [1]: 0.497 µM
